Patent US20260232767A1, “INTERLEUKIN-23 RECEPTOR ANTAGONIST PEPTIDES FOR USE IN THE TREATMENT OF PSORIASIS” (Janssen Pharmaceutica NV, priority 2023, published 2026)

Test system: subjects with moderate-to-severe plaque psoriasis
Test: Suicidal ideation or behavior (Columbia-Suicide Severity Rating Scale)
[1] = Combined (all regimens), Week 16-56
[2] = Placebo → 100 mg QD, Week 16-56
[3] = Placebo → 100 mg QD, through Week 56

Protocol: Adverse events were reported and followed by the investigator. Any clinically relevant changes occurring during the study were recorded. Any clinically significant abnormalities persisting at the end of the study/early withdrawal were followed by the investigator until resolution or until a clinically stable condition was reached if possible. The evaluations of safety and tolerability include: physical examinations, vital signs, electrocardiograms, clinical safety laboratory assessments, review of concomitant medication, pregnancy testing, suicidal ideation evaluation via the Columbia—Suicide Severity Rating Scale, and tuberculosis evaluation.

CC(=O)NCCCC[C@@H]1NC(=O)[C@H](Cc2c[nH]c3c(C)cccc23)NC(=O)[C@H]([C@@H](C)O)NC(=O)[C@H](CC(N)=O)NC(=O)[C@@H](NC(C)=O)C(C)(C)SSC(C)(C)[C@@H](C(=O)N[C@@H](Cc2ccc(OCCN)cc2)C(=O)N[C@@H](Cc2ccc3ccccc3c2)C(=O)NC2(C(=O)N[C@@H](CCC(=O)O)C(=O)N[C@@H](CC(N)=O)C(=O)N[C@@H](Cc3cccnc3)C(=O)N(C)CC(N)=O)CCOCC2)NC1=O [IL-23 receptor antagonist peptide, Ac-[Pen]*-N-T-[W(7-Me)]-[Lys(Ac)]-[Pen]*-Phe[4-(2-aminoethoxy)]-[2-Nal]-[THP]-E-N-[3-Pal]-Sarc-NH2 (*[Pen]-[Pen]* formdisulfidebond)]
0: Subjects with 1 - Wish to be dead (25 mg BID, Week 16-56) | Subjects with 2 - Non-specific active suicidal thoughts (25 mg BID, Week 16-56) | Subjects with 3 - Active suicidal ideation with any methods (not plan) without intent to act (25 mg BID, Week 16-56) | Subjects with 4 - Active suicidal ideation with some intent to act, without specific plan (25 mg BID, Week 16-56) | Subjects with 5 - Active suicidal ideation with specific plan and intent (25 mg BID, Week 16-56) | Subjects with 6 - Preparatory acts or behavior (25 mg BID, Week 16-56) | Subjects with 7 - Aborted attempt (25 mg BID, Week 16-56) | Subjects with 8 - Interrupted attempt (25 mg BID, Week 16-56) | Subjects with 9 - Non-fatal suicide attempt (25 mg BID, Week 16-56) | Subjects with 10 - Completed suicide (25 mg BID, Week 16-56) | Subjects with suicidal behavior (25 mg BID, Week 16-56) | Subjects with suicidal ideation (25 mg BID, Week 16-56) | Subjects with suicidal ideation or behavior (25 mg BID, Week 16-56) | Subjects with 1 - Wish to be dead (25 mg BID, through Week 56) | Subjects with 2 - Non-specific active suicidal thoughts (25 mg BID, through Week 56) | Subjects with 3 - Active suicidal ideation with any methods (not plan) without intent to act (25 mg BID, through Week 56) | Subjects with 4 - Active suicidal ideation with some intent to act, without specific plan (25 mg BID, through Week 56) | Subjects with 5 - Active suicidal ideation with specific plan and intent (25 mg BID, through Week 56) | Subjects with 6 - Preparatory acts or behavior (25 mg BID, through Week 56) | Subjects with 7 - Aborted attempt (25 mg BID, through Week 56) | Subjects with 8 - Interrupted attempt (25 mg BID, through Week 56) | Subjects with 9 - Non-fatal suicide attempt (25 mg BID, through Week 56) | Subjects with 10 - Completed suicide (25 mg BID, through Week 56) | Subjects with suicidal behavior (25 mg BID, through Week 56) | Subjects with suicidal ideation (25 mg BID, through Week 56) | Subjects with suicidal ideation or behavior (25 mg BID, through Week 56) | Subjects with 1 - Wish to be dead (25 mg QD, through Week 56) | Subjects with 2 - Non-specific active suicidal thoughts (25 mg QD, through Week 56) | Subjects with 3 - Active suicidal ideation with any methods (not plan) without intent to act (25 mg QD, through Week 56) | Subjects with 4 - Active suicidal ideation with some intent to act, without specific plan (25 mg QD, through Week 56) | Subjects with 5 - Active suicidal ideation with specific plan and intent (25 mg QD, through Week 56) | Subjects with 6 - Preparatory acts or behavior (25 mg QD, through Week 56) | Subjects with 7 - Aborted attempt (25 mg QD, through Week 56) | Subjects with 8 - Interrupted attempt (25 mg QD, through Week 56) | Subjects with 9 - Non-fatal suicide attempt (25 mg QD, through Week 56) | Subjects with 10 - Completed suicide (25 mg QD, through Week 56) | Subjects with suicidal behavior (25 mg QD, through Week 56) | Subjects with suicidal ideation (25 mg QD, through Week 56) | Subjects with suicidal ideation or behavior (25 mg QD, through Week 56) | Subjects with 1 - Wish to be dead (25 mg QD, Week 16-56) | Subjects with 2 - Non-specific active suicidal thoughts (25 mg QD, Week 16-56) | Subjects with 3 - Active suicidal ideation with any methods (not plan) without intent to act (25 mg QD, Week 16-56) | Subjects with 4 - Active suicidal ideation with some intent to act, without specific plan (25 mg QD, Week 16-56) | Subjects with 5 - Active suicidal ideation with specific plan and intent (25 mg QD, Week 16-56) | Subjects with 6 - Preparatory acts or behavior (25 mg QD, Week 16-56) | Subjects with 7 - Aborted attempt (25 mg QD, Week 16-56) | Subjects with 8 - Interrupted attempt (25 mg QD, Week 16-56) | Subjects with 9 - Non-fatal suicide attempt (25 mg QD, Week 16-56) | Subjects with 10 - Completed suicide (25 mg QD, Week 16-56) | Subjects with suicidal behavior (25 mg QD, Week 16-56) | Subjects with suicidal ideation (25 mg QD, Week 16-56) | Subjects with suicidal ideation or behavior (25 mg QD, Week 16-56) | Subjects with 1 - Wish to be dead (50 mg QD, Week 16-56) | Subjects with 2 - Non-specific active suicidal thoughts (50 mg QD, Week 16-56) | Subjects with 3 - Active suicidal ideation with any methods (not plan) without intent to act (50 mg QD, Week 16-56) | Subjects with 4 - Active suicidal ideation with some intent to act, without specific plan (50 mg QD, Week 16-56) | Subjects with 5 - Active suicidal ideation with specific plan and intent (50 mg QD, Week 16-56) | Subjects with 6 - Preparatory acts or behavior (50 mg QD, Week 16-56) | Subjects with 7 - Aborted attempt (50 mg QD, Week 16-56) | Subjects with 8 - Interrupted attempt (50 mg QD, Week 16-56) | Subjects with 9 - Non-fatal suicide attempt (50 mg QD, Week 16-56) | Subjects with 10 - Completed suicide (50 mg QD, Week 16-56) | Subjects with suicidal behavior (50 mg QD, Week 16-56) | Subjects with suicidal ideation (50 mg QD, Week 16-56) | Subjects with suicidal ideation or behavior (50 mg QD, Week 16-56) | Subjects with 1 - Wish to be dead (50 mg QD, through Week 56) | Subjects with 2 - Non-specific active suicidal thoughts (50 mg QD, through Week 56) | Subjects with 3 - Active suicidal ideation with any methods (not plan) without intent to act (50 mg QD, through Week 56) | Subjects with 4 - Active suicidal ideation with some intent to act, without specific plan (50 mg QD, through Week 56) | Subjects with 5 - Active suicidal ideation with specific plan and intent (50 mg QD, through Week 56) | Subjects with 6 - Preparatory acts or behavior (50 mg QD, through Week 56) | Subjects with 7 - Aborted attempt (50 mg QD, through Week 56) | Subjects with 8 - Interrupted attempt (50 mg QD, through Week 56) | Subjects with 9 - Non-fatal suicide attempt (50 mg QD, through Week 56) | Subjects with 10 - Completed suicide (50 mg QD, through Week 56) | Subjects with suicidal behavior (50 mg QD, through Week 56) | Subjects with suicidal ideation (50 mg QD, through Week 56) | Subjects with suicidal ideation or behavior (50 mg QD, through Week 56) | Subjects with 1 - Wish to be dead (100 mg BID, Week 16-56) | Subjects with 2 - Non-specific active suicidal thoughts (100 mg BID, Week 16-56) | Subjects with 3 - Active suicidal ideation with any methods (not plan) without intent to act (100 mg BID, Week 16-56) | Subjects with 4 - Active suicidal ideation with some intent to act, without specific plan (100 mg BID, Week 16-56) | Subjects with 5 - Active suicidal ideation with specific plan and intent (100 mg BID, Week 16-56) | Subjects with 6 - Preparatory acts or behavior (100 mg BID, Week 16-56) | Subjects with 7 - Aborted attempt (100 mg BID, Week 16-56) | Subjects with 8 - Interrupted attempt (100 mg BID, Week 16-56) | Subjects with 9 - Non-fatal suicide attempt (100 mg BID, Week 16-56) | Subjects with 10 - Completed suicide (100 mg BID, Week 16-56) | Subjects with suicidal behavior (100 mg BID, Week 16-56) | Subjects with suicidal ideation (100 mg BID, Week 16-56) | Subjects with suicidal ideation or behavior (100 mg BID, Week 16-56) | Subjects with 1 - Wish to be dead (100 mg BID, through Week 56) | Subjects with 2 - Non-specific active suicidal thoughts (100 mg BID, through Week 56) | Subjects with 3 - Active suicidal ideation with any methods (not plan) without intent to act (100 mg BID, through Week 56) | Subjects with 4 - Active suicidal ideation with some intent to act, without specific plan (100 mg BID, through Week 56) | Subjects with 5 - Active suicidal ideation with specific plan and intent (100 mg BID, through Week 56) | Subjects with 6 - Preparatory acts or behavior (100 mg BID, through Week 56) | Subjects with 7 - Aborted attempt (100 mg BID, through Week 56) | Subjects with 8 - Interrupted attempt (100 mg BID, through Week 56) | Subjects with 9 - Non-fatal suicide attempt (100 mg BID, through Week 56) | Subjects with 10 - Completed suicide (100 mg BID, through Week 56) | Subjects with suicidal behavior (100 mg BID, through Week 56) | Subjects with suicidal ideation (100 mg BID, through Week 56) | Subjects with suicidal ideation or behavior (100 mg BID, through Week 56) | Subjects with 1 - Wish to be dead (100 mg QD, Week 16-56) | Subjects with 2 - Non-specific active suicidal thoughts (100 mg QD, Week 16-56) | Subjects with 3 - Active suicidal ideation with any methods (not plan) without intent to act (100 mg QD, Week 16-56) | Subjects with 4 - Active suicidal ideation with some intent to act, without specific plan (100 mg QD, Week 16-56) | Subjects with 5 - Active suicidal ideation with specific plan and intent (100 mg QD, Week 16-56) | Subjects with 6 - Preparatory acts or behavior (100 mg QD, Week 16-56) | Subjects with 7 - Aborted attempt (100 mg QD, Week 16-56) | Subjects with 8 - Interrupted attempt (100 mg QD, Week 16-56) | Subjects with 9 - Non-fatal suicide attempt (100 mg QD, Week 16-56) | Subjects with 10 - Completed suicide (100 mg QD, Week 16-56) | Subjects with suicidal behavior (100 mg QD, Week 16-56) | Subjects with suicidal ideation (100 mg QD, Week 16-56) | Subjects with 1 - Wish to be dead (100 mg QD, through Week 56) | Subjects with 2 - Non-specific active suicidal thoughts (100 mg QD, through Week 56) | Subjects with 3 - Active suicidal ideation with any methods (not plan) without intent to act (100 mg QD, through Week 56) | Subjects with 4 - Active suicidal ideation with some intent to act, without specific plan (100 mg QD, through Week 56) | Subjects with 5 - Active suicidal ideation with specific plan and intent (100 mg QD, through Week 56) | Subjects with 6 - Preparatory acts or behavior (100 mg QD, through Week 56) | Subjects with 7 - Aborted attempt (100 mg QD, through Week 56) | Subjects with 8 - Interrupted attempt (100 mg QD, through Week 56) | Subjects with 10 - Completed suicide (100 mg QD, through Week 56) | Subjects with suicidal ideation (100 mg QD, through Week 56) | Subjects with 1 - Wish to be dead [1] | Subjects with 2 - Non-specific active suicidal thoughts [1] | Subjects with 3 - Active suicidal ideation with any methods (not plan) without intent to act [1] | Subjects with 4 - Active suicidal ideation with some intent to act, without specific plan [1] | Subjects with 5 - Active suicidal ideation with specific plan and intent [1] | Subjects with 6 - Preparatory acts or behavior [1] | Subjects with 7 - Aborted attempt [1] | Subjects with 8 - Interrupted attempt [1] | Subjects with 9 - Non-fatal suicide attempt [1] | Subjects with 10 - Completed suicide [1] | Subjects with suicidal behavior [1] | Subjects with suicidal ideation [1] | Subjects with 1 - Wish to be dead (Combined, through Week 56) | Subjects with 2 - Non-specific active suicidal thoughts (Combined, through Week 56) | Subjects with 3 - Active suicidal ideation with any methods (not plan) without intent to act (Combined, through Week 56) | Subjects with 4 - Active suicidal ideation with some intent to act, without specific plan (Combined, through Week 56) | Subjects with 5 - Active suicidal ideation with specific plan and intent (Combined, through Week 56) | Subjects with 6 - Preparatory acts or behavior (Combined, through Week 56) | Subjects with 7 - Aborted attempt (Combined, through Week 56) | Subjects with 8 - Interrupted attempt (Combined, through Week 56) | Subjects with 10 - Completed suicide (Combined, through Week 56) | Subjects with suicidal ideation (Combined, through Week 56) | Subjects with 1 - Wish to be dead [2] | Subjects with 2 - Non-specific active suicidal thoughts [2] | Subjects with 3 - Active suicidal ideation with any methods (not plan) without intent to act [2] | Subjects with 4 - Active suicidal ideation with some intent to act, without specific plan [2] | Subjects with 5 - Active suicidal ideation with specific plan and intent [2] | Subjects with 6 - Preparatory acts or behavior [2] | Subjects with 7 - Aborted attempt [2] | Subjects with 8 - Interrupted attempt [2] | Subjects with 9 - Non-fatal suicide attempt [2] | Subjects with 10 - Completed suicide [2] | Subjects with suicidal behavior [2] | Subjects with suicidal ideation [2] | Subjects with suicidal ideation or behavior [2] | Subjects with 1 - Wish to be dead [3] | Subjects with 2 - Non-specific active suicidal thoughts [3] | Subjects with 3 - Active suicidal ideation with any methods (not plan) without intent to act [3] | Subjects with 4 - Active suicidal ideation with some intent to act, without specific plan [3] | Subjects with 5 - Active suicidal ideation with specific plan and intent [3] | Subjects with 6 - Preparatory acts or behavior [3] | Subjects with 7 - Aborted attempt [3] | Subjects with 8 - Interrupted attempt [3] | Subjects with 9 - Non-fatal suicide attempt [3] | Subjects with 10 - Completed suicide [3] | Subjects with suicidal behavior [3] | Subjects with suicidal ideation [3] | Subjects with suicidal ideation or behavior [3]
